molecular target: T1, recombinant human GST-SYK (Homo sapiens, UniProt P43405); assay: Homogeneous Time-Resolved Fluorescence (HTRF) assay for the recombinant human SYK enzyme; assay type: biochemical; settings: recombinant human GST-SYK 5 pM, ATP 25 μM, 10-dose titration; read-out: rhSYK Activity (IC50)
T1 construct: purchased Carna Biosciences 08-176
Description: Homogeneous Time-Resolved Fluorescence (HTRF) Assay for the Recombinant Human SYK Enzyme:
A recombinant GST-hSYK fusion protein was used to measure potency of compounds to inhibit human SYK activity. The recombinant human GST-SYK (Carna Biosciences #08-176) (5 pM final concentration) was incubated with various concentrations of the inhibitor diluted in DMSO (0.1% final concentration) for 10 minutes at room temperature in 15 mM Tris-HCl (pH 7.5), 0.01% tween 20, 2 mM DTT in 384 well plate format. To initiate the reaction the biotinylated substrate peptide (250 nM final concentration) that contains the phosphorylation site for SYK was added with magnesium (5 mM final concentration) and ATP (25 μM final concentration). Final volume of the reaction was 10 μL. Phosphorylation of the peptide was allowed to proceed for 45′ at room temperature. To quench the reaction and detect the phosphorylated product, 2 nM of a Europium-atiti-phosphotyrosine antibody (Perkin Elmer #AD0161) and 70 nM SA-APC (Perkin-Elmer #CR130-100) were added together in 15 mM Tris pH 7.5, 40 mM EDTA, 0.01% tween 20. Final volume of the quenching solution was 10 μL. The resulting HTRF signal was measured after 30 minutes on a EnVision (Perkin-Elmer) reader using a time-resolved fluorescence protocol.

Row | IC50 | SMILES
1 | ≤ 100 nM | CSc1ccnc(Nc2cc(C)cc(-c3cnc(N4CCCNC(=O)C4)s3)c2)n1 [4-[5-(3-methyl-5-{[4-(methylsulfanyl)pyrimidin-2-yl]amino}phenyl)-1,3-thiazol-2-yl]-1,4-diazepan-2-one]
2 | ≤ 100 nM | Cc1cc(Nc2nccc(C(F)(F)F)n2)cc(-c2cnc(N3CCC4(CCNC4)CC3)s2)c1 [Example 1, N-{3-[2-(2,8-diazaspiro[4.5]dec-8-yl)-1,3-thiazol-5-yl]-5-methylphenyl}-4-(trifluoromethyl)-pyrimidin-2-amine]
3 | ≤ 100 nM | OCCNc1ncc(-c2cccc(Nc3nccc(C(F)(F)F)n3)c2)s1 [Example 2]
4 | ≤ 100 nM | OCCN(CCO)c1ncc(-c2cccc(Nc3nccc(C(F)(F)F)n3)c2)s1 [Example 3]
5 | ≤ 100 nM | CN(CCO)c1ncc(-c2cccc(Nc3nccc(C(F)(F)F)n3)c2)s1 [Example 4]
6 | ≤ 100 nM | COCCNc1ncc(-c2cccc(Nc3nccc(C(F)(F)F)n3)c2)s1 [Example 5]
7 | ≤ 100 nM | CCCCN(CCO)c1ncc(-c2cccc(Nc3nccc(C(F)(F)F)n3)c2)s1 [Example 6]
8 | ≤ 100 nM | CN(CC(O)c1ccccc1)c1ncc(-c2cccc(Nc3nccc(C(F)(F)F)n3)c2)s1 (stereo not drawn) [Example 7]
9 | ≤ 100 nM | OCCN(Cc1ccccn1)c1ncc(-c2cccc(Nc3nccc(C(F)(F)F)n3)c2)s1 [Example 8]
10 | ≤ 100 nM | CCC(O)CNc1ncc(-c2cccc(Nc3nccc(C(F)(F)F)n3)c2)s1 (stereo not drawn) [Example 9]
11 | ≤ 100 nM | CCC(CO)Nc1ncc(-c2cccc(Nc3nccc(C(F)(F)F)n3)c2)s1 (stereo not drawn) [Example 10]
12 | ≤ 100 nM | OCC(CO)Nc1ncc(-c2cccc(Nc3nccc(C(F)(F)F)n3)c2)s1 [Example 11]
13 | ≤ 100 nM | OC1COCC1Nc1ncc(-c2cccc(Nc3nccc(C(F)(F)F)n3)c2)s1 (stereo not drawn) [Example 12]
14 | ≤ 100 nM | OC(CNc1ncc(-c2cccc(Nc3nccc(C(F)(F)F)n3)c2)s1)C(F)F (stereo not drawn) [Example 13]
15 | ≤ 100 nM | OCCCNc1ncc(-c2cccc(Nc3nccc(C(F)(F)F)n3)c2)s1 [Example 15]
16 | ≤ 100 nM | CC(C)(CO)CNc1ncc(-c2cccc(Nc3nccc(C(F)(F)F)n3)c2)s1 [Example 16]
17 | ≤ 100 nM | OC1(CCNc2ncc(-c3cccc(Nc4nccc(C(F)(F)F)n4)c3)s2)CCCC1 [Example 17]
18 | ≤ 100 nM | OCCCCNc1ncc(-c2cccc(Nc3nccc(C(F)(F)F)n3)c2)s1 [Example 18]
19 | ≤ 100 nM | O[C@H]1CC[C@H](Nc2ncc(-c3cccc(Nc4nccc(C(F)(F)F)n4)c3)s2)CC1 [Example 19]
20 | ≤ 100 nM | CC(C)C(CO)Nc1ncc(-c2cccc(Nc3nccc(C(F)(F)F)n3)c2)s1 (stereo not drawn) [Example 20]
21 | ≤ 100 nM | CNc1ncc(-c2cccc(Nc3nccc(C(F)(F)F)n3)c2)s1 [Example 21]
22 | ≤ 100 nM | Cn1cncc1CNc1ncc(-c2cccc(Nc3nccc(C(F)(F)F)n3)c2)s1 [Example 22]
23 | ≤ 100 nM | CC(C)(CO)Nc1ncc(-c2cccc(Nc3nccc(C(F)(F)F)n3)c2)s1 [Example 23]
24 | ≤ 100 nM | C=CCN(CC=C)c1ncc(-c2cccc(Nc3nccc(C(F)(F)F)n3)c2)s1 [Example 25]
25 | 100 to 1000 nM | OCCCCCCN(Cc1ccccc1)c1ncc(-c2cccc(Nc3nccc(C(F)(F)F)n3)c2)s1 [Example 26]

Row | IC50 | SMILES
26 | ≤ 100 nM | Cc1cc(Nc2nccc(C(F)(F)F)n2)cc(-c2cnc(N(C)CCO)s2)c1 [Example 27]
27 | ≤ 100 nM | Cc1cc(Nc2nccc(C(F)(F)F)n2)cc(-c2cnc(NCCO)s2)c1 [Example 28]
28 | ≤ 100 nM | CC(C)(O)CNc1ncc(-c2cccc(Nc3nccc(C(F)(F)F)n3)c2)s1 [Example 29]
29 | 100 to 1000 nM | COC(=O)c1ccc(N(C)c2ncc(-c3cccc(Nc4nccc(C(F)(F)F)n4)c3)s2)cc1 [Example 30]
30 | ≤ 100 nM | FC(F)(F)c1ccnc(Nc2cccc(-c3cnc(NCc4cncnc4)s3)c2)n1 [Example 31]
31 | ≤ 100 nM | CC(CO)Nc1ncc(-c2cccc(Nc3nccc(C(F)(F)F)n3)c2)s1 (stereo not drawn) [Example 32]
32 | ≤ 100 nM | CN(Cc1ccccn1)c1ncc(-c2cccc(Nc3nccc(C(F)(F)F)n3)c2)s1 [Example 33]
33 | ≤ 100 nM | CCOCCNc1ncc(-c2cccc(Nc3nccc(C(F)(F)F)n3)c2)s1 [Example 34]
34 | ≤ 100 nM | FC(F)(F)c1ccnc(Nc2cccc(-c3cnc(NCCc4c[nH]cn4)s3)c2)n1 [Example 35]
35 | ≤ 100 nM | CN(c1ncc(-c2cccc(Nc3nccc(C(F)(F)F)n3)c2)s1)C1CCOC1 (stereo not drawn) [Example 36]
36 | ≤ 100 nM | FC(F)(F)c1ccnc(Nc2cccc(-c3cnc(NCc4ccccn4)s3)c2)n1 [Example 37]
37 | ≤ 100 nM | FC(F)CNc1ncc(-c2cccc(Nc3nccc(C(F)(F)F)n3)c2)s1 [Example 38]
38 | ≤ 100 nM | FC(F)(F)c1ccnc(Nc2cccc(-c3cnc(NCc4cccnc4)s3)c2)n1 [Example 39]
39 | 100 to 1000 nM | FC(F)(F)c1ccnc(Nc2cccc(-c3cnc(NCCc4cccs4)s3)c2)n1 [Example 40]
40 | ≤ 100 nM | FC(F)(F)c1ccnc(Nc2cccc(-c3cnc(NCc4c[nH]nn4)s3)c2)n1 [Example 41]
41 | ≤ 100 nM | CCC(C)Nc1ncc(-c2cccc(Nc3nccc(C(F)(F)F)n3)c2)s1 (stereo not drawn) [Example 42]
42 | 100 to 1000 nM | FC(F)(F)c1ccnc(Nc2cccc(-c3cnc(NC4CCCC4)s3)c2)n1 [Example 43]
43 | ≤ 100 nM | CSCCNc1ncc(-c2cccc(Nc3nccc(C(F)(F)F)n3)c2)s1 [Example 44]
44 | ≤ 100 nM | FC(F)(F)c1ccnc(Nc2cccc(-c3cnc(NCC4CCOC4)s3)c2)n1 (stereo not drawn) [Example 45]
45 | 100 to 1000 nM | Oc1ccc(CCNc2ncc(-c3cccc(Nc4nccc(C(F)(F)F)n4)c3)s2)cc1 [Example 46]
46 | 100 to 1000 nM | CN(Cc1ccccc1)c1ncc(-c2cccc(Nc3nccc(C(F)(F)F)n3)c2)s1 [Example 48]
47 | 100 to 1000 nM | OCCN(c1ncc(-c2cccc(Nc3nccc(C(F)(F)F)n3)c2)s1)C1CCCC1 [Example 49]
48 | ≤ 100 nM | COCC(O)CNc1ncc(-c2cccc(Nc3nccc(C(F)(F)F)n3)c2)s1 (stereo not drawn) [Example 50]
49 | ≤ 100 nM | O=C1CCCN1CCNc1ncc(-c2cccc(Nc3nccc(C(F)(F)F)n3)c2)s1 [Example 51]
50 | ≤ 100 nM | CCCN(CCO)c1ncc(-c2cccc(Nc3nccc(C(F)(F)F)n3)c2)s1 [Example 52]

Row | IC50 | SMILES
51 | ≤ 100 nM | CN1CCC(CNc2ncc(-c3cccc(Nc4nccc(C(F)(F)F)n4)c3)s2)C1 (stereo not drawn) [Example 53]
52 | 100 to 1000 nM | COc1ccc(CCNc2ncc(-c3cccc(Nc4nccc(C(F)(F)F)n4)c3)s2)cc1 [Example 54]
53 | 100 to 1000 nM | CC(Nc1ncc(-c2cccc(Nc3nccc(C(F)(F)F)n3)c2)s1)c1ccccc1 (stereo not drawn) [Example 55]
54 | ≤ 100 nM | CC(Cc1cnccn1)Nc1ncc(-c2cccc(Nc3nccc(C(F)(F)F)n3)c2)s1 (stereo not drawn) [Example 56]
55 | 1000 to 10000 nM | FC(F)(F)c1ccnc(Nc2cccc(-c3cnc(NCc4cccc(N5CCCCC5)c4)s3)c2)n1 [Example 57]
56 | ≤ 100 nM | FC(F)(F)c1ccnc(Nc2cccc(-c3cnc(NCC4CCCNC4)s3)c2)n1 (stereo not drawn) [Example 59]
57 | ≤ 100 nM | FC(F)(F)c1ccnc(Nc2cccc(-c3cnc(NCC4CCOCC4)s3)c2)n1 [Example 61]
58 | ≤ 100 nM | Cn1cc(CNc2ncc(-c3cccc(Nc4nccc(C(F)(F)F)n4)c3)s2)cn1 [Example 62]
59 | 100 to 1000 nM | Cc1cc(C)n(CCNc2ncc(-c3cccc(Nc4nccc(C(F)(F)F)n4)c3)s2)n1 [Example 63]
60 | 100 to 1000 nM | Fc1c(CNc2ncc(-c3cccc(Nc4nccc(C(F)(F)F)n4)c3)s2)cccc1C(F)(F)F [Example 64]
61 | 1000 to 10000 nM | C[C@@H](Nc1ncc(-c2cccc(Nc3nccc(C(F)(F)F)n3)c2)s1)C1CCCCC1 [Example 65]
62 | ≤ 100 nM | Cc1cc(CNc2ncc(-c3cccc(Nc4nccc(C(F)(F)F)n4)c3)s2)nn1C [Example 67]
63 | ≤ 100 nM | Cc1cc(CNc2ncc(-c3cccc(Nc4nccc(C(F)(F)F)n4)c3)s2)n(C)n1 [Example 69]
64 | ≤ 100 nM | OCCOCCNc1ncc(-c2cccc(Nc3nccc(C(F)(F)F)n3)c2)s1 [Example 72]
65 | ≤ 100 nM | CCCC[C@@H](CO)Nc1ncc(-c2cccc(Nc3nccc(C(F)(F)F)n3)c2)s1 [Example 74]
66 | 1000 to 10000 nM | Cc1ccsc1CNc1ncc(-c2cccc(Nc3nccc(C(F)(F)F)n3)c2)s1 [Example 75]
67 | ≤ 100 nM | FC(F)(F)c1ccnc(Nc2cccc(-c3cnc(NCc4cccc(-n5cccn5)c4)s3)c2)n1 [Example 76]
68 | 100 to 1000 nM | FC(F)(F)c1ccnc(Nc2cccc(-c3cnc(NCc4c[nH]nc4-c4ccccc4)s3)c2)n1 [Example 78]
69 | ≤ 100 nM | Cc1nn(C)c(C)c1CNc1ncc(-c2cccc(Nc3nccc(C(F)(F)F)n3)c2)s1 [Example 79]
70 | ≤ 100 nM | CSCCC(CO)Nc1ncc(-c2cccc(Nc3nccc(C(F)(F)F)n3)c2)s1 (stereo not drawn) [Example 80]
71 | ≤ 100 nM | Cn1cnc(CNc2ncc(-c3cccc(Nc4nccc(C(F)(F)F)n4)c3)s2)c1 [Example 81]
72 | ≤ 100 nM | OC1CCCC(Nc2ncc(-c3cccc(Nc4nccc(C(F)(F)F)n4)c3)s2)C1 (stereo not drawn) [Example 82]
73 | ≤ 100 nM | Cc1cc(CNc2ncc(-c3cccc(Nc4nccc(C(F)(F)F)n4)c3)s2)no1 [Example 83]
74 | ≤ 100 nM | CCC(CO)Nc1ncc(-c2cc(C)cc(Nc3nccc(C(F)(F)F)n3)c2)s1 (stereo not drawn) [Example 84]
75 | ≤ 100 nM | Cc1cc(Nc2nccc(C(F)(F)F)n2)cc(-c2cnc(NCc3cccnc3)s2)c1 [Example 85]
